How the values were obtained:
[1] = test system: Human Small Cell Lung Cancer NCI-H82; assay: Cell proliferation experiment (Alarm blue), H82; assay type: cell-based; details: H82 cells, 72 h culture; read-out: Anti cell proliferative activity EC50, H82
Method in brief: (§1)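 Log-phase cells in 96-well plates were exposed 72 h to compound in a 5-fold dilution series, duplicate wells. Viability was measured by Alamar blue fluorescence, and IC50 was derived from a fit using minimum, maximum and slope.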

[2] = test system: human gastric carcinoma cells N87; assay: Cell proliferation experiment (Alarm blue), N87; assay type: cell-based; details: N87 cells, 72 h culture; read-out: Anti cell proliferative activity EC50, N87
Method in brief: as §1

[3] = test system: Human Colon Cancer cells Colo205; assay: Cell proliferation experiment (Alarm blue), Colo205; assay type: cell-based; details: Colo205 cells, 72 h culture; read-out: Anti cell proliferative activity EC50, Colo205
Method in brief: as §1

[4] = test system: Human Small Cell Lung Cancer H69; assay: Cell proliferation experiment (Alarm blue), H69; assay type: cell-based; details: H69 cells, 72 h culture; read-out: Anti cell proliferative activity EC50, H69
Method in brief: as §1

Human Colon Cancer HT-29 = assay: Cell proliferation experiment (Alarm blue), HT-29; assay type: cell-based; details: HT-29 cells, 72 h culture; read-out: Anti cell proliferative activity EC50, HT-29
Method in brief: as §1

[5] = test system: human small cell lung cancer NCI-H82 xenograft tumor; assay: In vivo efficacy in nude mouse xenograft tumor model of human small cell lung cancer NCI-H82; parameters: species or system BALB/c nude mice; details: nude mice
Experimental: Transplanted tumor cell line: human small cell lung cancer cell NCI-H82, derived from the American Type Culture Collection Center (ATCC, cryopreserved in liquid nitrogen in the laboratory). Under 5% CO2 and 37° C. culture conditions, cells were routinely cultured in RPMI-1640 culture medium containing 10% fetal bovine serum; they were passaged according to cell growth, with a passage ratio of 1:2 to 1:5.
Experimental animal: Female BALB/c nude mice (number: 65; age: 6-8 weeks) were purchased from Charles River and raised in the SPF animal room of Suzhou Shengsu New Pharmaceutical Development Co., Ltd. (3D Biooptima). The temperature is 20 to 25° C., and relative humidity is 40% to 70%, with bright light and dark light for 12 hours each; animals were free to drink and eat. After normal feeding for about 5 days, mice with good physical signs can be selected for this experiment after veterinary inspection. Before grouping, animals were identified at the base of tail using maker pens. After grouping, each animal was identified by ear clipping.
Animal model preparation: NCI-H82 cells at logarithmic growth phase were collected, the cells were resuspended in 50% serum-free RPMI-1640 medium and 50% Matrigel after counting. The concentration of cells was adjusted to […] cells/mL. […] After inoculation, the animal status and tumor growth were regularly observed, the tumor diameter was measured using a electronic vernier caliper, the data were entered into Excel to calculate the tumor volume. […] After the start of experiment, the tumor diameter was measured twice a week, the tumor volume was calculated, and the animal weight was weighed and recorded at the same time. […]
Preparation of UB-181322 sample: An appropriate amount of UB series sample was weighed and put it into a glass bottle; an appropriate volume of DMSO was added. […] The liquid was vortexed to mix evenly, with the proportions of DMSO, 30% Solutol aqueous solution and ultrapure water in the liquid being 5%, 20% and 75%, to obtain preparations with appropriate final concentrations, which are ready for use. […]

[6] = injection 23 mg/kg once every two days (FIG. 3B)

SMILES: CC(C)[C@@H](NC(=O)CCOCCOCCOCCOCCOCCOCCOCCOCCN1C(=O)CC(SC[C@H](N)C(=O)N[C@H](Cc2ccccc2)C(=O)N[C@H]2CSSC[C@@H](C(=O)N[C@H](CO)[C@@H](C)O)NC(=O)[C@H]([C@@H](C)O)NC(=O)[C@H](CCCCN)NC(=O)[C@@H](Cc3c[nH]c4ccccc34)NC(=O)[C@H](Cc3ccccc3)NC2=O)C1=O)C(=O)N[C@@H](C)C(=O)Nc1ccc(COC(=O)N(CCC#Cc2ccc3c(c2)CN(C2CCC(=O)NC2=O)C3=O)[C@H]2CC[C@H](NC(=O)N3CCN(c4ccc(Nc5ncc(Cl)c(Nc6ccccc6C(N)=O)n5)cc4)CC3)CC2)cc1 (some centres unmarked) [UB-181322]
- EC50 [1]: 312 nM
- EC50 [2]: 470 nM
- EC50 [3]: 384 nM
- EC50 [4]: > 1000 nM
- EC50 (Human Colon Cancer HT-29): > 1000 nM
- tumor inhibitory effect compared with blank group ([5]; injection 23 mg/kg once every two days (FIG. 3A)): shows the effect of inhibiting tumor growth
- mouse body weight during the administration period [5, 6]: does not change significantly
- toxicity [5, 6]: low

From patent US20250041306A1, “TARGETED PROTEASE DEGRADATION (TED) PLATFORM” (EUBULUS BIOTHERAPEUTICS INC., priority 2021, published 2025)
